Results on ten compounds are retold here after patent US5502035A, “N-terminus modified analogs of LHRH” (Tap Holdings Inc., priority 1994, dated 1996).

Non-standard residues stand in square brackets, D forms with d. Residues, ends and D or L forms follow the SMILES beside them. *: point of attachment. Shikimoyl = O=C(C1=C[C@@H](O)[C@@H](O)[C@H](O)C1)*; dPhe(4-Cl) = N[C@H](Cc1ccc(Cl)cc1)C(=O)O; d2Nal = N[C@H](Cc1ccc2ccccc2c1)C(=O)O; Lys(iPr) = CC(C)NCCCC[C@H](N)C(=O)O; NMeY = CN[C@@H](Cc1ccc(O)cc1)C(=O)O; NMeF = CN[C@@H](Cc1ccccc1)C(=O)O; dCit = NC(=O)NCCC[C@@H](N)C(=O)O; hArg = N=C(N)NCCCC[C@H](N)C(=O)O; d3Pal = N[C@H](Cc1cccnc1)C(=O)O; Salicyloyl = O=C(c1ccccc1O)*; Nicotinoyl = O=C(c1cccnc1)*; Picolinoyl = O=C(c1ccccn1)*; βAla = NCCC(=O)O

The target of the assay is T1, LHRH (Rattus norvegicus, UniProt P30969).
T1 construct: endogenous in cells; host or cells: rat pituitary cells (own knowledge of the cited Haviv 1989 method)
T1 sequence (P30969 1-327): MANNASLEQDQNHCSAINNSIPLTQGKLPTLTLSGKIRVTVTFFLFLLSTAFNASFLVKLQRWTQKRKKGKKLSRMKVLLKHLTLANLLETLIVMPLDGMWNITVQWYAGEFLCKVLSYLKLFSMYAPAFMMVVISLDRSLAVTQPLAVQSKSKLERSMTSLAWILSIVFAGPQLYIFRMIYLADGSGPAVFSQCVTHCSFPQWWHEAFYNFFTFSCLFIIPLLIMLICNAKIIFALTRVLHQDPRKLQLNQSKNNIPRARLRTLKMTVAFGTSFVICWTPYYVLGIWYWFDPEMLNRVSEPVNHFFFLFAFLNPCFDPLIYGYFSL
Nature of the assay: in vitro test for LHRH antagonist potency (pA2). Format: cell-based. The settings on record: negative logarithm of the antagonist concentration required to shift the response curve produced by the agonist leuprolide to two-fold higher concentration. The method, boiled down:
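Antagonism read against the agonist leuprolide on rat LHRH receptor; value is pA2, the −log of antagonist concentration that doubles the agonist concentration needed for the same response.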
For `CC(C)C[C@H](NC(=O)[C@@H](CCCNC(N)=O)NC(=O)[C@H](Cc1ccc(O)cc1)N(C)C(=O)[C@H](CO)NC(=O)[C@@H](Cc1cccnc1)NC(=O)[C@@H](Cc1ccc(Cl)cc1)NC(=O)[C@@H](Cc1ccc2ccccc2c1)NC(=O)[C@@H](C)NC(=O)C1=C[C@@H](O)[C@@H](O)[C@H](O)C1)C(=O)N[C@@H](CCCNC(=N)N)C(=O)N1CCC[C@H]1C(=O)N[C@H](C)C(N)=O` [Example 13e, N-Shikimyl-DAla-D2Nal-D4ClPhe-D3Pal-Ser-NMeTyr-DCit-Leu-Arg-Pro-DAlaNH2] (Shikimoyl-[dA][d2Nal][dPhe(4-Cl)][d3Pal]S[NMeY][dCit]LRP[dA]-NH2), the Kb was 0.0316 nM.

For `CC(C)C[C@H](NC(=O)[C@@H](CCCCNC(=O)C1=C[C@@H](O)[C@@H](O)[C@H](O)C1)NC(=O)[C@H](Cc1ccc(O)cc1)N(C)C(=O)[C@H](CO)NC(=O)[C@@H](Cc1cccnc1)NC(=O)[C@@H](Cc1ccc(Cl)cc1)NC(=O)[C@@H](Cc1ccc2ccccc2c1)NC(=O)CCNC(=O)C1=C[C@@H](O)[C@@H](O)[C@H](O)C1)C(=O)N[C@@H](CCCNC(=N)N)C(=O)N1CCC[C@H]1C(=O)N[C@H](C)C(N)=O` [Example 27e, N-Shikimyl-3-Aminopropionyl-D2Nal-D4ClPhe-D3Pal-Ser-NMeTyr-DLys(Shik)-Leu- Arg-Pro-DAlaNH2] ({Shikimoyl-βAla}-[d2Nal][dPhe(4-Cl)][d3Pal]S[NMeY][dK](Shikimoyl)LRP[dA]-NH2), the Kb is 0.0347 nM.

On to `CC(C)C[C@H](NC(=O)[C@@H](CCCNC(N)=O)NC(=O)[C@H](Cc1ccc(O)cc1)N(C)C(=O)[C@H](CO)NC(=O)[C@@H](Cc1cccnc1)NC(=O)[C@@H](Cc1ccc(Cl)cc1)NC(=O)[C@@H](Cc1ccc2ccccc2c1)NC(=O)c1cccnc1)C(=O)N[C@@H](CCCNC(=N)N)C(=O)N1CCC[C@H]1C(=O)N[C@H](C)C(N)=O` [Example 78g, N-Nicotinyl-D2Nal-D4ClPhe-D3Pal-Ser-NMeTyr-DCit-Leu-Arg-Pro-DAlaNH2] (Nicotinoyl-[d2Nal][dPhe(4-Cl)][d3Pal]S[NMeY][dCit]LRP[dA]-NH2), for which the Kb is 0.00708 nM.

With `CC(C)C[C@H](NC(=O)[C@@H](CCCCNC(=O)C1=C[C@@H](O)[C@@H](O)[C@H](O)C1)NC(=O)[C@H](Cc1ccc(O)cc1)N(C)C(=O)[C@H](CO)NC(=O)[C@@H](Cc1cccnc1)NC(=O)[C@@H](Cc1ccc(Cl)cc1)NC(=O)[C@@H](Cc1ccc2ccccc2c1)NC(=O)CNC(=O)C1=C[C@@H](O)[C@@H](O)[C@H](O)C1)C(=O)N[C@@H](CCCCNC(=N)N)C(=O)N1CCC[C@H]1C(=O)N[C@H](C)C(N)=O` [Example 25d, N-Shikimyl-Gly-D2Nal-D4ClPhe-D3Pal-Ser-NMeTyr-DLys(Shik)-Leu-Harg-Pro-DAlaNH2] (Shikimoyl-G[d2Nal][dPhe(4-Cl)][d3Pal]S[NMeY][dK](Shikimoyl)L[hArg]P[dA]-NH2), the Kb is 0.0339 nM.

Regarding `CC(C)C[C@H](NC(=O)[C@@H](CCCCNC(=O)c1cccnc1)NC(=O)[C@H](Cc1ccc(O)cc1)N(C)C(=O)[C@H](CO)NC(=O)[C@@H](Cc1cccnc1)NC(=O)[C@@H](Cc1ccc(Cl)cc1)NC(=O)[C@@H](Cc1ccc2ccccc2c1)NC(=O)CNC(=O)c1ccccc1O)C(=O)N[C@@H](CCCCNC(C)C)C(=O)N1CCC[C@H]1C(=O)N[C@H](C)C(N)=O` [Example 2h, N-Salicyl-Gly-D2Nal-D4ClPhe-D3Pal-Ser-NMeTyr-DLys(N-epsilon-Nicotinyl) -Leu-Lys(N-epsilon-Isopropyl)-Pro-DAlaNH2] (Salicyloyl-G[d2Nal][dPhe(4-Cl)][d3Pal]S[NMeY][dK](Nicotinoyl)L[Lys(iPr)]P[dA]-NH2), the Kb is 0.01 nM.

Turning to `CC(C)C[C@H](NC(=O)[C@@H](CCCCNC(=O)C1=C[C@@H](O)[C@@H](O)[C@H](O)C1)NC(=O)[C@H](Cc1ccccc1)N(C)C(=O)[C@H](CO)NC(=O)[C@@H](Cc1cccnc1)NC(=O)[C@@H](Cc1ccc(Cl)cc1)NC(=O)[C@@H](Cc1ccc2ccccc2c1)NC(=O)CNC(=O)c1cccnc1)C(=O)N[C@@H](CCCCNC(=N)N)C(=O)N1CCC[C@H]1C(=O)N[C@H](C)C(N)=O` [Example 26a, N-Nicotinyl-Gly-D2Nal-D4ClPhe-D3Pal-Ser-NMePhe-DLys(Shik)-Leu-Harg-Pro-DAlaNH2] (Nicotinoyl-G[d2Nal][dPhe(4-Cl)][d3Pal]S[NMeF][dK](Shikimoyl)L[hArg]P[dA]-NH2), the Kb was 0.0275 nM.

Take `CC(C)C[C@H](NC(=O)[C@@H](CCCCNC(=O)NNC(=O)c1ccco1)NC(=O)[C@H](Cc1ccc(O)cc1)N(C)C(=O)[C@H](CO)NC(=O)[C@@H](Cc1cccnc1)NC(=O)[C@@H](Cc1ccc(Cl)cc1)NC(=O)[C@@H](Cc1ccc2ccccc2c1)NC(=O)CNC(=O)C1CCCO1)C(=O)N[C@@H](CCCCNC(C)C)C(=O)N1CCC[C@H]1C(=O)N[C@H](C)C(N)=O` (mixture of isomers) [Example 30a, N-(R,S)-Tetrahydrofur-2-oyl-Gly-D2Nal-D4ClPhe-D3Pal-Ser-NMeTyr-DLys(Azagly-2Fur)-Leu-Lys(Isp)-Pro-DAlaNH2]: the antagonist equilibrium constant (Kb) is 0.0479 nM.

Consider `CC(C)C[C@H](NC(=O)[C@@H](CCCCNC(=O)c1cccnc1)NC(=O)[C@H](Cc1ccc(O)cc1)N(C)C(=O)[C@H](CO)NC(=O)[C@@H](Cc1cccnc1)NC(=O)[C@@H](Cc1ccc(Cl)cc1)NC(=O)[C@@H](Cc1ccc2ccccc2c1)NC(=O)CNC(=O)C1CCCO1)C(=O)N[C@@H](CCCCNC(C)C)C(=O)N1CCC[C@H]1C(=O)N[C@H](C)C(N)=O` (mixture of isomers) [Example 3, N-(R,S)-Tetrahydrofur-2-oyl-Gly-D2Nal-D4ClPhe-D3Pal-Ser-NMeTyr-DLys(Nicotinyl) -Leu-Lys(N-epsilon-Isopropyl)-Pro-DAlaNH2], for which the Kb was 0.0158 nM.

Take `CC(C)C[C@H](NC(=O)[C@@H](CCCCNC(=O)c1cccnc1)NC(=O)[C@H](Cc1ccc(O)cc1)N(C)C(=O)[C@H](CO)NC(=O)[C@@H](Cc1cccnc1)NC(=O)[C@@H](Cc1ccc(Cl)cc1)NC(=O)[C@@H](Cc1ccc2ccccc2c1)NC(=O)CNC(=O)c1ccccn1)C(=O)N[C@@H](CCCCNC(C)C)C(=O)N1CCC[C@H]1C(=O)N[C@H](C)C(N)=O` [Example 2e, N-Picolyl-Gly-D2Nal-D4ClPhe-D3Pal-Ser-NMeTyr-DLys(N-epsilon-Nicotinyl) -Leu-Lys(N-epsilon-Isopropyl)-Pro-DAlaNH2] (Picolinoyl-G[d2Nal][dPhe(4-Cl)][d3Pal]S[NMeY][dK](Nicotinoyl)L[Lys(iPr)]P[dA]-NH2; N-terminus assumed): the Kb is 0.02 nM.

For the compound `CC(C)C[C@H](NC(=O)[C@@H](CCCCNC(=O)CNC(=O)c1cccnc1)NC(=O)[C@H](Cc1ccc(O)cc1)N(C)C(=O)[C@H](CO)NC(=O)[C@@H](Cc1cccnc1)NC(=O)[C@@H](Cc1ccc(Cl)cc1)NC(=O)[C@@H](Cc1ccc2ccccc2c1)NC(=O)CNC(=O)C1CCCO1)C(=O)N[C@@H](CCCNC(=N)N)C(=O)N1CCC[C@H]1C(=O)N[C@H](C)C(N)=O` (mixture of isomers) [Example 27b, N-(R,S)-Tetrahydrofur-2oyl-Gly-D2Nal-D4ClPhe-D3Pal-Ser-NMeTyr-DLys(Gly-Nic)-Leu-Arg-Pro-DAlaNH 2], the Kb is 0.0135 nM.

A word on the Kb: it is the equilibrium dissociation constant of an antagonist, usually derived from a functional assay.
